This note sets out measurements from patent US20260297065A1, “AROMATIC SUBSTITUENT-CONTAINING (HETERO) ARYL-IMIDAZOLE COMPOUND, AND PREPARATION METHOD THEREFOR AND USE THEREOF” (OPEN SOURCE THERAPEUTICS, priority 2022, published 2026).

The test concerns the target T1, soluble epoxide hydrolase (sEH) (Homo sapiens, UniProt P34913).
T1 sequence (P34913 1-555): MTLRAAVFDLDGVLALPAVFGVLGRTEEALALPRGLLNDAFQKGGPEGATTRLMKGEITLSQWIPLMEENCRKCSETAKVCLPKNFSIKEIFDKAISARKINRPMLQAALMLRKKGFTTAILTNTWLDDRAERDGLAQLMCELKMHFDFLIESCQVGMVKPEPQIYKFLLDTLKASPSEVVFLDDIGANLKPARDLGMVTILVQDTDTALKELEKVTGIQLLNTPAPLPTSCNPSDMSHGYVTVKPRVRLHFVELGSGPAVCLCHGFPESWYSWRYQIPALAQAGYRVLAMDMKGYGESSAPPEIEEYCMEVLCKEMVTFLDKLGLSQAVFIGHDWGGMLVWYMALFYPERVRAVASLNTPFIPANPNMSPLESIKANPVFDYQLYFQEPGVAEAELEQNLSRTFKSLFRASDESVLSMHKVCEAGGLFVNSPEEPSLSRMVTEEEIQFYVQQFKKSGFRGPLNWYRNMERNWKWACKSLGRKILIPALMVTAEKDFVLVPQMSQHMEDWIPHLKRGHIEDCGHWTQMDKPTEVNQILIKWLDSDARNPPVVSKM
Briefly: in vitro biochemical activity test, sEH enzyme inhibition with EET substrate (LC-MS). The following applies: 90 min pre-incubation at room temperature, 60 min reaction. The procedure: This example relates to the relationship between the structure and activity of (hetero)aryl imidazole compounds containing an aromatic substituent. Specifically, the biochemical activity of the (hetero)aryl imidazole compounds containing an aromatic substituent described in Example 1 as sEH enzyme inhibitors was evaluated by in vitro activity test experiments.
The experimental procedures for evaluating in vitro biochemical activity were described below.
The substrate used in the evaluation experiment was epoxyeicosatrienoic acid (EET). The solutions used in the evaluation experiments were Bis/Tris HCl 25 mM pH 7.0, Bis/Tris HCl 25 mM pH 7.0 containing 0.1 mg/mL BSA was used as buffer A, and Bis/Tris HCl 25 mM pH 7.0 containing 36.3 mM ZnSO4 was used as buffer B.
The specific steps of the evaluation experiment were as follows. 79 μL of buffer A was added to each well in a black 96-well plate and then 1 μL solution of the aromatic substituent-containing (hetero)aryl imidazole compound was added. Then, 10 μL sEH (1 μM) buffer A solution was added to the wells. After pre-incubation at room temperature for 90 min, 10 μL EET (10 μM) buffer A solution was added to trigger the reaction. After the mixture was allowed to react […] for 60 min, 15 μL buffer B and 180 μL acetonitrile were added to quench the reaction, followed by high-speed centrifugation and filtration for later use.
LC-MS was used to detect the concentration of EET in the samples. The final IC50 was calculated based on three independent experiments using Graphpad Prism software.

A word on the IC50: it is the concentration that inhibits the measured activity by half.

On to `Cc1ncc(-c2ccc3[nH]c(-c4ccc(C(F)(F)F)cc4)nc3c2F)cn1` [Compound 14, 7-fluoro-6-(2-methylpyrimid-5-yl)-2-(4-(trifluoromethyl)-phenyl)-1H-benzo[d]imidazole], for which the IC50 is 0.94 nM.

As to `CNS(=O)(=O)c1ccc(-c2nc3cc(-c4cnc(F)cc4C)c(F)cc3[nH]2)cc1` [Compound 37, 4-(5-fluoro-6-(6-fluoro-4-methylpyridin-3-yl)-1H-benzo [d]imidazol-2-yl)-N-methyl-benzenesulfonamide], the IC50 worked out at 0.38 nM.

Compound `Fc1c(-c2cnc(N3CCOCC3)nc2C(F)F)cc2[nH]c(-c3ccc(C(F)(F)F)cc3)nc2c1F` [Compound 74] gave an IC50 of 0.17 nM.

`CC(C)n1nc(N)cc1-c1cc2[nH]c(-c3ccc(S(=O)(=O)N(C)C)cc3)nc2cc1F` [Compound 60, 4-(6-(1-isopropyl-3-amino-1H-pyrazol-5-yl)-5-fluoro-1H-benzo[d]imidazol-2-yl)-N,N-dimethylbenzenesulfonamide]: the IC50 worked out at 0.057 nM.

On to `Cc1nc(N(C)C)ncc1-c1cc2nc(-c3ccc(C(F)(F)F)cc3)[nH]c2cc1F` [Compound 9, 5-(5-fluoro-2-(4-(trifluoro-methyl)phenyl)-1H-benzo[d]imidazol-6-yl)-N,N,4-trimeth-ylpyrimidine-2-amine], for which the IC50 stood at 0.11 nM.

Consider `Cc1nc(N)ncc1-c1cc2[nH]c(-c3ccc(C(F)(F)F)cc3)nc2cc1F` [Compound 42, 5-(5-fluoro-2-(4-(trifluoro-methyl)phenyl)-1H-benzo[d]imidazol-6-yl)-4-methylpyrim-idine-2-amine], for which it took 0.14 nM to reach half-maximal inhibition (IC50).

For the compound `CN(C)S(=O)(=O)c1ccc(-c2nc3c(F)c(F)c(-c4cnc(N)cc4Cl)cc3[nH]2)cc1` [Compound 57, 4-(6-(6-amino-4-chloropyri-din-3-yl)-4,5-difluoro-1H-benzo[d]imidazol-2-yl)-N,N-dimethylbenzenesulfonamide], half-maximal inhibition (IC50) was put at 0.036 nM.

For `Nc1cc(C(F)F)c(-c2cc3[nH]c(-c4ccc(C(F)(F)F)cc4)nc3c(F)c2F)cn1` [Compound 77, 2-(4-(trifluoromethyl)phenyl)-6-(4-(difluoromethyl)-6-amino-pyridin-3-yl)-4,5-difluoro-1H-benzo[d]imidazole], the midpoint of inhibition, the IC50, lay at 0.047 nM.

Take `CC(C)n1nccc1-c1cc2nc(-c3ccc(S(=O)(=O)N(C)C)cc3)[nH]c2c(F)c1F` [Compound 25, 4-(4,5-difluoro-6-(1-isopropyl-1H-pyrazol-5-yl)-1H-benzo[d]imidazol-2-yl)-N,N-dimethyl-benzenesulfonamide]: the IC50 came to 0.045 nM.

In turn, `Cc1ncc(-c2cc3nc(-c4ccc(S(C)(=O)=O)cc4)[nH]c3cc2Cl)c(Cl)n1` [Compound 4, 5-chloro-6-(4-chloro-2-meth-ylpyrimid-5-yl)-2-(4-(methyl-sulfonyl)phenyl)-1H-benzo[d] imidazole] registered an IC50 of 0.99 nM.

Regarding `CC(C)c1ncncc1-c1cc2[nH]c(-c3ccc(S(=O)(=O)N(C)C)cc3)nc2cc1F` [Compound 47, 4-(5-fluoro-6-(4-isopropyl-pyrimid-5-yl)-1H-benzo[d]imidazol-2-yl)-N,N-dimethyl-benzenesulfonamide], 0.036 nM corresponded to half-maximal inhibition (IC50).

Compound `Cc1ccc(-c2cc3nc(-c4ccc(C(F)(F)F)cc4)[nH]c3cc2F)c(Cl)n1` [Compound 12, 6-(2-chloro-6-methylpyridin-3-yl)-5-fluoro-2-(4-(trifluoro-methyl)phenyl)-1H-benzo[d] imidazole] displayed an IC50 of 0.058 nM.

With `CC(C)n1nccc1-c1cc2nc(-c3ccc(S(=O)(=O)N(C)C)cc3)[nH]c2cc1F` [Compound 21, 4-(5-fluoro-6-(1-isopropyl-1H-pyrazol-5-yl)-1H-benzo[d]imidazol-2-yl)-N,N-dimethyl-benzenesulfonamide], the IC50 worked out at 0.051 nM.

In the case of `Cc1nc(N)ncc1-c1cc2nc(-c3ccc(S(=O)(=O)N(C)C)cc3)[nH]c2c(Cl)c1F` [Compound 35, 4-(6-(2-amino-4-methylpyr-imid-5-yl)-4-chloro-5-fluoro-1H-benzo[d]imidazol-2-yl)-N,N-dimethylbenzenesulfon-amide], the IC50 is 0.045 nM.

The compound `Cc1nc(N)ncc1-c1cc2nc(-c3ccc(S(=O)(=O)N(C)C)cc3)[nH]c2c(F)c1Cl` [Compound 31, 4-(6-(2-amino-4-methylpyr-imid-5-yl)-5-chloro-4-fluoro-1H-benzo[d]imidazol-2-yl)-N,N-dimethylbenzenesulfon-amide] came in with an IC50 of 0.085 nM.

`Cc1ncc(-c2cc3nc(-c4ccc(C(F)(F)F)cc4)[nH]c3c(F)c2F)c(C)n1` [Compound 5]: the IC50 came out at 0.074 nM.

`CN(C)S(=O)(=O)c1ccc(-c2nc3cc(-c4ccncc4Cl)c(F)cc3[nH]2)cc1` [Compound 1, 4-(6-(3-chloropyridin-4-yl)-5-fluoro-1H-benzo[d]imidazol-2-yl)-N,N-dimethylbenzene-sulfonamide] displayed an IC50 of 0.11 nM.

`CN(C)S(=O)(=O)c1ccc(-c2nc3cc(F)c(-c4cnc(N)nc4C(F)F)cc3[nH]2)cc1` [Compound 51, 4-(6-(4-(difluoromethyl)-2-aminopyrimid-5-yl)-5-fluoro-1H-benzo[d]imidazol-2-yl)-N,N-dimethylbenzenesulfon-amide] displayed an IC50 of 0.016 nM.

As for `CN(C)S(=O)(=O)c1ccc(-c2nc3cc(-c4ccnn4C(C)(C)F)c(F)cc3[nH]2)cc1` [Compound 38, 4-(5-fluoro-6-(1-(2-fluoropro-pan-2-yl)-1H-pyrazol-5-yl)-1H-benzo[d]imidazol-2-yl)-N,N-dimethylbenzenesulfon-amide], the IC50 was found to be 0.045 nM.

`CN(C)S(=O)(=O)c1ccc(-c2nc3cc(-c4cnc(N)cc4Cl)c(F)cc3[nH]2)cc1` [Compound 40, 4-(6-(6-amino-4-chloropyr-idin-3-yl)-5-fluoro-1H-benzo [d]imidazol-2-yl)-N,N-dimeth-ylbenzenesuIfonamide] returned an IC50 of 0.063 nM.

Turning to `Cc1nc(N2CCOCC2)ncc1-c1cc2nc(-c3ccc(S(=O)(=O)N(C)C)cc3)[nH]c2cc1F` [Compound 26, 4-(5-fluoro-6-(4-methyl-2-morpholinopyrimid-5-yl)-1H-benzo[d]imidazol-2-yl)-N,N-dimethylbenzenesulfonamide], the IC50 was determined as 0.081 nM.

With `Cc1cc(-c2cc3nc(-c4ccc(C(F)(F)F)cc4)[nH]c3cc2F)n(C)n1` [Compound 13, 6-(1,3-dimethyl-1H-pyrazol-5-yl)-5-fluoro-2-(4-(trifluoro-methyl)phenyl)-1H-benzo[d] imidazole], half-maximal inhibition (IC50) was put at 0.4 nM.

Regarding `Cc1nn(S(C)(=O)=O)c(C)c1-c1cc2nc(-c3ccc(C(F)(F)F)cc3)[nH]c2cc1F` [Compound 24, 6-(3,5-dimethyl-1-(methyl-sulfonyl)-1H-pyrazo1-4-yl)-5-fluoro-2-(4-(trifluoromethyl)-phenyl)-1H-benzo[d]imidazole], half-maximal inhibition (IC50) required 0.2 nM.

The compound `CC(C)n1nccc1-c1cc2nc(-c3ccc(S(C)(=O)=O)cc3)[nH]c2cc1F` [Compound 19, 5-fluoro-6-(1-isopropyl-1H-pyrazol-5-yl)-2-(4-(methyl-sulfonyl)phenyl)-1H-benzo[d] imidazole] showed an IC50 of 0.98 nM.

The compound `CNc1nc(C)ncc1-c1cc2nc(-c3ccc(C(F)(F)F)cc3)[nH]c2cc1F` [Compound 7, 5-(5-fluoro-2-(4-(trifluoro-methyl)phenyl)-1H-benzo[d]imidazol-6-yl)-N,2-dimethyl-pyrimidine-4-amine] gave an IC50 of 0.11 nM.
